Reference: patent US4971965A, “Antibiotics TAN-1057” (Takeda Chemical Industries, Ltd., priority 1988, dated 1990)
In brackets after ≈: the same amount, converted by molar mass.

How the values were obtained:
[1] = system: Staphylococcus aureus N62; assay: Antibacterial activity against clinically isolated S. aureus (agar dilution MIC, Table 2); type: cell-based; details: Staphylococcus aureus; strain N62; agar dilution; Mueller Hinton medium; 10^6 CFU/ml; read-out: MIC
Description: (§1) DMPPC: Methicillin, KM: Kanamycin, GM: Gentamycin, EM: Erythromycin (Note
(§2) Determined by the agar dilution method. Medium: Mueller Hinton medium
(§3) (Difco, USA) Inoculum Size: 10^6 CFU/ml, 37° C.

[2] = system: Staphylococcus aureus TST-75; assay: as above; type: cell-based; details: Staphylococcus aureus, TST75; strain TST-75; agar dilution; Mueller Hinton medium; 10^6 CFU/ml; read-out: MIC
Description: as §1, §2, §3

[3] = system: Staphylococcus aureus N267; assay: as above; type: cell-based; details: Staphylococcus aureus; strain N267; agar dilution; Mueller Hinton medium; 10^6 CFU/ml; read-out: MIC
Description: as §1, §2, §3

[4] = system: Staphylococcus aureus N83; assay: as above; type: cell-based; details: Staphylococcus aureus; strain N83; agar dilution; Mueller Hinton medium; 10^6 CFU/ml; read-out: MIC
Description: as §1, §2, §3

[5] = system: Staphylococcus aureus N91; assay: as above; type: cell-based; details: Staphylococcus aureus; strain N91; agar dilution; Mueller Hinton medium; 10^6 CFU/ml; read-out: MIC
Description: as §1, §2, §3

[6] = system: Staphylococcus aureus N51; assay: as above; type: cell-based; details: Staphylococcus aureus; strain N51; agar dilution; Mueller Hinton medium; 10^6 CFU/ml; read-out: MIC
Description: as §1, §2, §3

Staphylococcus aureus C4 = assay: as above; type: cell-based; details: Staphylococcus aureus, C4
Description: as §1, §2, §3

Staphylococcus aureus N8 = assay: as above; type: cell-based; details: Staphylococcus aureus; strain N8; agar dilution; Mueller Hinton medium; 10^6 CFU/ml; read-out: MIC
Description: as §1, §2, §3

[7] = system: Staphylococcus aureus N176; assay: as above; type: cell-based; details: Staphylococcus aureus; strain N176; agar dilution; Mueller Hinton medium; 10^6 CFU/ml; read-out: MIC
Description: as §1, §2, §3

[8] = system: Staphylococcus aureus TS-65; assay: as above; type: cell-based; details: Staphylococcus aureus, TS65; strain TS-65; agar dilution; Mueller Hinton medium; 10^6 CFU/ml; read-out: MIC
Description: as §1, §2, §3

[9] = system: Staphylococcus aureus N121; assay: as above; type: cell-based; details: Staphylococcus aureus; strain N121; agar dilution; Mueller Hinton medium; 10^6 CFU/ml; read-out: MIC
Description: as §1, §2, §3

[10] = system: Staphylococcus aureus N176-6; assay: as above; type: cell-based; details: Staphylococcus aureus, N1766; strain N176-6; agar dilution; Mueller Hinton medium; 10^6 CFU/ml; read-out: MIC
Description: as §1, §2, §3

Staphylococcus aureus C3 = assay: as above; type: cell-based; details: Staphylococcus aureus; strain C3; agar dilution; Mueller Hinton medium; 10^6 CFU/ml; read-out: MIC
Description: as §1, §2, §3

Staphylococcus aureus C7 = assay: as above; type: cell-based; details: Staphylococcus aureus; strain C7; agar dilution; Mueller Hinton medium; 10^6 CFU/ml; read-out: MIC
Description: as §1, §2, §3

[11] = system: Staphylococcus aureus N28; assay: as above; type: cell-based; details: Staphylococcus aureus; strain N28; agar dilution; Mueller Hinton medium; 10^6 CFU/ml; read-out: MIC
Description: as §1, §2, §3

[12] = system: Staphylococcus aureus N247; assay: as above; type: cell-based; details: Staphylococcus aureus; strain N247; agar dilution; Mueller Hinton medium; 10^6 CFU/ml; read-out: MIC
Description: as §1, §2, §3

[13] = system: Staphylococcus aureus N129; assay: as above; type: cell-based; details: Staphylococcus aureus; strain N129; agar dilution; Mueller Hinton medium; 10^6 CFU/ml; read-out: MIC
Description: as §1, §2, §3

[14] = system: Staphylococcus aureus N235; assay: as above; type: cell-based; details: Staphylococcus aureus; strain N235; agar dilution; Mueller Hinton medium; 10^6 CFU/ml; read-out: MIC
Description: as §1, §2, §3

[15] = system: Staphylococcus aureus N247-16; assay: as above; type: cell-based; details: Staphylococcus aureus, N24716; strain N247-16; agar dilution; Mueller Hinton medium; 10^6 CFU/ml; read-out: MIC
Description: as §1, §2, §3

[16] = system: Staphylococcus aureus N64; assay: as above; type: cell-based; details: Staphylococcus aureus; strain N64; agar dilution; Mueller Hinton medium; 10^6 CFU/ml; read-out: MIC
Description: as §1, §2, §3

[17] = system: Mycoplasma garisepticum TB-3A; assay: MIC against Mycoplasma (Table 3); type: cell-based; details: TB3A, 120 h, 10^6 CFU/ml, Hayflick medium, 37° C., 5 days
[18] = system: Treponema hyodicenterie 78/A; assay: MIC against Spirochaeta (Table 3); details: 48 h
[19] = Acute toxicity in mice (Table 7); details: mouse, in vivo

CN(C(=O)C[C@@H](N)CCCNC(=N)N)[C@H]1CNC(NC(N)=O)=NC1=O [TAN-1057A]
MIC [1]: 0.78 µg/mL (≈ 2.19 µM)
MIC [2]: 0.78 µg/mL (≈ 2.19 µM)
MIC [3]: ≤ 0.2 µg/mL
MIC [4]: 0.39 µg/mL (≈ 1.1 µM)
MIC [5]: 0.78 µg/mL (≈ 2.19 µM)
MIC [6]: 0.78 µg/mL (≈ 2.19 µM)
MIC (Staphylococcus aureus C4): 6.25 µg/mL (≈ 17.6 µM)
MIC (Staphylococcus aureus N8): 0.78 µg/mL (≈ 2.19 µM)
MIC [7]: 1.56 µg/mL (≈ 4.39 µM)
MIC [8]: 0.78 µg/mL (≈ 2.19 µM)
MIC [9]: 0.78 µg/mL (≈ 2.19 µM)
MIC [10]: 0.78 µg/mL (≈ 2.19 µM)
MIC (Staphylococcus aureus C3): 0.78 µg/mL (≈ 2.19 µM)
MIC (Staphylococcus aureus C7): 0.78 µg/mL (≈ 2.19 µM)
MIC [11]: 0.78 µg/mL (≈ 2.19 µM)
MIC [12]: 1.56 µg/mL (≈ 4.39 µM)
MIC [13]: 0.39 µg/mL (≈ 1.1 µM)
MIC [14]: 1.56 µg/mL (≈ 4.39 µM)
MIC [15]: 0.78 µg/mL (≈ 2.19 µM)
MIC [16]: 0.78 µg/mL (≈ 2.19 µM)
MIC [17]: 3.13 µg/mL (≈ 8.81 µM)
MIC [18]: 100 µg/mL (≈ 281 µM)
LD50 ([19]; Oral): > 400 mg/kg
LD50 ([19]; ip, Intraperitoneal): ~100 mg/kg
